Experimental data reported in patent US20260209152A1, “Substituted Hydroxystilbene Compounds and Derivatives, Synthesis and Uses Thereof” (Kynan Duke IP, LLC, priority 2019, published 2026).
Several values for one entry are separate records, joined by “and”; a condition that tells them apart may be missing. Identical values can stand only once. Like-named read-outs stand apart in the source and are kept apart here.

Legend:
[1] = test system: primary human keratinocytes; assay: Cell viability in keratinocyte CCL2 assay (assay number 1243); assay type: cell-based; conditions: Homo sapiens
Excerpt: (§1) • 1. Determination of inhibition of CCL2 release from IL-4, IL-13, IL-22 and IFN-γ-stimulated primary human keratinocytes [assay number 1280] and determination of the effect on cell viability [assay number 1243]. • 2. Determination of inhibition of IL-8 release from IL-17A and TNFα-induced primary human keratinocytes [assay number 1250] and determination of the effect on cell viability [assay number 1244]. • 3. Determination of inhibition of IL-17A secretion from human PBMC stimulated with antiCD3/antiCD28-coated beads [assay number 1321] and determination of the effect on cell viability [assay number 1322]. • 4. Determination of inhibition of IL-4 and IL-2 secretion from human CD4-positive T-cells stimulated with antiCD2/antiCD3/antiCD28-coated beads [assay number 1297, 1298] and determination of the effect on cell viability [assay number 1299].

[2] = as above; assay type: cell-based, human; conditions: human
Excerpt: as §1

[3] = test system: human CD4-positive T-cells; assay: Cell viability in T-cell IL-2 & IL-4 assay (assay number 1299); assay type: cell-based; conditions: Homo sapiens, CD4 positive
Description: (§2) Then the level of secreted of IL-4 is measured in the culture supernatant using electrochemiluminescence (MSD kits, Meso Scale Discovery), IL-2 is measured by proximity homogenous time-resolved fluorescence (HTRF) and the amount of living cells is measured by addition of resazurin (PrestoBlue®) to allow identifying compounds that inhibit T-cell proliferation or viability.
(§3) • Remove plates from incubation and equilibrate to room temperature for 30 minutes. • IL-4 concentration in 10 μL supernatant is measured using an MSD IL-4 384-plate kit (Custom made) according to manufacturer protocol. • IL-2 concentrations in the supernatant is measured by an IL-2 HTRF kit, CisBio, cat. No 62HIL02PEH. • Add 4 μL medium to white proxi 384-well plates • Add 1 μL supernatant. • Add 4 μL mHTRF mix (each diluted 1:300 in ⅔ reconstitution buffer and ⅓ assay medium). • Spin the plates for 1 minute at 170 g • Seal and incubate overnight and read fluorescence in a plate reader • The amount of viable cells is measured by PrestoBlue® reagent • Add 15 μL diluted PrestoBlue® reagent (resazurin) corresponding to 2.5 μL Prestoblue/well to the assay plate. • Incubate overnight at 37° C./5% CO2. The fluorescence in the wells is measured (Ex615/Em 535).
(§4) The level of living cells in the wells is measured by the addition of PrestoBlue® and the conversion of Resazurin to Resorufin (fluorescent) in living cells is measured.
(§5) The effect of the test compounds on viability/proliferation is normalized to the PrestoBlue signal in the negative control wells treated with a toxic compound, Terfenadine.

[4] = as above; assay type: cell-based, human; conditions: human, human CD4-positive T-cells
Description: as §2, §3, §4, §5

[5] = test system: Kidney A-498; assay: CellTiter Glo cell viability assay; assay type: cell-based, human
In short: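 A498 human kidney cancer cells were seeded in 96-well plates in quadruplicate at 1.7*10^3 cells/well and exposed to serial dilutions of test compound. Viability was read with the Promega CellTiter Glo Luminescence assay on a Thermo Scientific Varioskan LUX plate reader. The half-maximal inhibitory concentration was obtained by nonlinear regression in GraphPad Prism 7.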

[6] = Keratinocyte, cell viability in CCL2 assay, read-out: Abs EC50: Viab (1243)
[7] = maximum reduction of cell viability in CCL2 assay, read-out: Max Eff.: Viab (1243)
[8] = cell viability in T-cell IL-2 & IL-4 assay, read-out: Abs EC50: Viab (1299)
[9] = maximum reduction of cell viability in T-cell IL-2 & IL-4 assay, read-out: Max Eff.: Viab (1299)
[10] = Homo sapiens, A498, 72 h, 3 Days of treatment, 18 2-fold dilutions 5-0.00003 μM, read-out: Average IC50
[11] = Homo sapiens, A498, 72 h, Table 4: 3 Days of treatment, 18 2-fold dilutions 5-0.00003 μM, Average (1, 8) or single Exp A-D, read-out: IC50
[12] = Homo sapiens, A498, A-498/HTB-44, 11 dilutions 3-0.00001 μM, Table 6, read-out: IC50
[13] = Homo sapiens, A498, Table 5A: 11 dilutions 3-0.00001 μM, average of experiments, read-out: IC50 average
[14] = Homo sapiens, A498, Table 5A: 11 dilutions 3-0.00001 μM, single experiments Exp E-K, read-out: IC50
[15] = keratinocyte CCL2 assay, read-out: EC50, cell viability
[16] = keratinocyte CCL2 assay, read-out: maximum reduction of cell viability
[17] = T-cell IL-2 & IL-4 assay, read-out: EC50, cell viability
[18] = T-cell IL-2 & IL-4 assay, read-out: maximum reduction of cell viability

Compound	EC50 [1, 6]	cytotoxicity [2, 7]	EC50 [3, 8]	cytotoxicity [4, 9]	IC50 [5, 10]	IC50 [5, 11]	IC50 [5, 12]	IC50 [5, 13]	IC50 [5, 14]	Fold IC50 ([5]; IC50 of 1 [KYN-001] vs 8 [KYN-119], 3 Days)	IC50 ([5]; Table 5A: 11 dilutions 3-0.00001 μM, average of experiments, read-out: IC50 average)	EC50 [1, 15]	cytotoxicity [2, 16]	EC50 [3, 17]	cytotoxicity [4, 18]	IC50 ([5]; Table 5A: 11 dilutions 3-0.00001 μM, single experiments Exp E-K, read-out: IC50)
COc1cc(/C=C/c2cc(O)cc(OC)c2CC=C(C)C)ccc1O [Compound 1, (E)-3-(4-hydroxy-3-methoxystyryl)-5-methoxy-4-(3-methylbut-2-en-1-yl)phenol]	0.202 µM	77%	5 µM	35%	2.81 µM	0.109 µM	1.07 µM	1.14 µM								
CCOc1cc(O)cc(/C=C/c2ccc(NC(=O)C(=O)O)c(OC)c2)c1CC=C(C)C [Compound 35, (E)-2-((4-(3-Ethoxy-5-hydroxy-2-(3-methylbut-2-en-1-yl)styryl)-2-methoxyphenyl)amino)-2-oxoacetic acid]	5 µM	30%	5 µM	7%					> 3 µM							
COc1cc(/C=C/c2cc(O)cc(OC)c2CC=C(C)C)ccc1NC(=O)CN [Compound 31, (E)-2-amino-N-(4-(5-hydroxy-3-methoxy-2-(3-methylbut-2-en-1-yl)styryl)-2-methoxyphenyl)acetamide]	0.431 µM	86%	5 µM	19%					> 3 µM							
CCOc1cc(O)cc(/C=C/c2ccc(O)c(OC)c2)c1CC=C(C)C [Compound 8, (E)-3-Ethoxy-5-(4-hydroxy-3-methoxystyryl)-4-(3-methylbut-2-en-1-yl)phenol]	0.235 µM	99%	5 µM	46%	0.329 µM	0.0103 µM	0.401 µM	0.36 µM		8.5	0.43 µM					
CCOc1cc(O)cc(/C=C/c2ccc(O)c(O)c2)c1CC=C(C)C [Compound 20, (E)-4-(3-Ethoxy-5-hydroxy-2-(3-methylbut-2-en-1-yl)styryl)benzene-1,2-diol]	0.442 µM	61%	5 µM	15%			0.62 µM									
COc1cc(/C=C/c2cc(O)cc(OC)c2CC=C(C)C)ccc1NC=O [Compound 27, (E)-N-(4-(5-hydroxy-3-methoxy-2-(3-methylbut-2-en-1-yl)styryl)-2-methoxyphenyl)formamide]	0.041 µM		4.35 µM				0.642 µM	0.728 µM				0.041 µM	67%	4.35 µM	52%	
CCOc1cc(O)cc(/C=C/c2ccc(NC=O)c(OC)c2)c1CC=C(C)C [Compound 28, (E)-N-(4-(3-Ethoxy-5-hydroxy-2-(3-methylbut-2-en-1-yl)styryl)-2-methoxyphenyl)formamide]	0.124 µM		2.36 µM				0.198 µM		0.1 to 1 µM			0.124 µM	68%	2.36 µM	60%	0.18 µM and 0.181 µM
